Results reported in US9452159B2, “6-aminopyridine-3-ol derivatives or pharmaceutically acceptable salts thereof, and pharmaceutical composition containing same as active ingredients for preventing or treating diseases caused by angiogenesis” (Research Cooperation Foundation of Yeungnam University, priority 2011, dated 2016).
Where two headings read alike, the source gives them in different places.

Key:
[1] = test system: chorioallantoic membrane (CAM); assay: Chorioallantoic membrane (CAM) assay, VEGF-derived angiogenesis; format: in vivo, chick; conditions: for angiogenesis inhibiting effects: VEGF-treated CAM, summary of Table 1, 6a compared with SU4312, batimastat and α-tocopherol
Method: To examine angiogenesis inhibiting effects in vivo, CAM assay was performed (Nguyen Metal., Microvascular Res., 47, pp 31-40, 1994). Hen's fertile eggs were incubated at a temperature of 37° C. and in relative humidity 55%, and on the 10th day after the incubation, an air sac site was punched by using a hypodermic needle (Greencross Medical Science Corp, Korea) to form a first hole, and then, a planar site of the fertile egg where a window was to be formed was punched to form a second hole. Air was removed through the first pore of the air sac site to allow the chorioallantoic membrane (CAM) to be separated from the shell of the fertile egg, and this site was cut by using a grinding wheel (Multipro 395JA, Dremel, Mexico) to form a window. […] Through the window, the filter disc was placed on blood vessels, which were then treated with the compounds each dissolved in dimethylsulfoxide (DMSO) and diluted with phosphate buffer solution (PBS) at various concentrations. 3 days after the treatment with the compounds, the CAM site with the filter disc placed thereon was separated, and then washed with a phosphate buffer solution, and an image thereof was obtained by using a stereomicroscope (Stemi SV6 stereomicroscope, Carl Zeiss, Germany) and image-Pro Plus software (Media Cybernetics; Silver Spring, Md., U.S.A.) to count the number of blood vessel branches, and the obtained results were assayed.

HUVEC cells = assay: VEGF-derived ROS scavenging ability (DCF-DA fluorescence); format: cell-based; conditions: HUVEC pretreated 3 hours, then VEGF 15 minutes, compared to VEGF, FIG. 5
Method: DCF-DA (2′,7′-dichlorofluorescein diacetate) was used to measure a VEGF-derived ROS scavenging ability in HUVEC cells. When ROS exists in cells, DCF-DA is oxidized into fluorescent DCF, thereby emitting green fluorescent light. 1×10^5 concentration of HUVEC was spread onto a 0.2% gelatin coated 8-well plate, and then incubated for 24 hours. The cells were pretreated with Compounds 6a or 6i for 3 hours and then, treated with VEGF for 15 minutes, and then, washed three times with PBS (pH 7.4), and then, 10 μM of DCF-DA was added to EBM-2 medium, which was then placed in dark condition for 30 minutes. Then, the cells were washed three times with PBS, and a degree of intracellular fluorescence was measured by using a fluorescent microscope.

A549 lung cancer cells = assay: Oncogenesis-derived angiogenesis and tumor growth on CAM inoculated with A549 lung cancer cells; format: in vivo, chick; conditions: A549 cells 1.5×10^6 cell/CAM, various concentrations, five days after inoculation; FIG. 4
Method: Hen's fertile eggs were incubated, and on the 9th day, a window was formed in the same manner as in Experimental Example 1, and instead of a disc, A549 lung cancer cells were mixed with matrigel at a ratio of 1:1, and then the cells were treated with Compounds 6a and 6i and inoculated at a concentration of 1.5×10^6 cell/CAM. Five days after the inoculation, the CAM site where tumors developed was separated and washed with a phosphate buffer solution, and then, an image thereof was obtained by using a stereomicroscope (Stemi SV6 stereomicroscope, Carl Zeiss, Germany) and Image-Pro Plus software (Media Cybernetics; Silver Spring, Md., U.S.A.) to count the number of blood vessel branches, and the results were assayed.

[2] = VEGF (50 ng/CAM) + 3.0 ng/CAM, 0.7 μM, 3 days after treatment
[3] = VEGF (50 ng/CAM) + 100 ng/CAM, 23 μM, 3 days after treatment
[4] = Gallus gallus, 72 h, VEGF (50 ng/CAM) + 2.0 ng/CAM, 1.0 μM, 3 days after treatment, read-out: Inhibition ratio
[5] = VEGF (50 ng/CAM) + 2.0 ng/CAM, 1.0 μM, 3 days after treatment
[6] = Gallus gallus, 72 h, VEGF (50 ng/CAM) + 3.0 ng/CAM, 1.0 μM, 3 days after treatment, read-out: Inhibition ratio
[7] = VEGF (50 ng/CAM) + 3.0 ng/CAM, 1.0 μM, 3 days after treatment
[8] = Gallus gallus, 72 h, VEGF (50 ng/CAM) + 3.0 ng/CAM, 1.3 μM, 3 days after treatment, read-out: Inhibition ratio
[9] = VEGF (50 ng/CAM) + 3.0 ng/CAM, 1.3 μM, 3 days after treatment
[10] = VEGF (50 ng/CAM) + 1.0 μg/CAM, 378 μM, 3 days after treatment
[11] = Gallus gallus, 72 h, VEGF (50 ng/CAM) + 3.0 ng/CAM, 1.1 μM, 3 days after treatment, read-out: Inhibition ratio
[12] = VEGF (50 ng/CAM) + 3.0 ng/CAM, 1.1 μM, 3 days after treatment

Cc1c(C)c2c(c(C)c1O)CC[C@@](C)(CCC[C@H](C)CCC[C@H](C)CCCC(C)C)O2 [α-Tocopherol, reference compound]
Inhibition ratio [1, 2]: 45.1 ± 9.3^8
Number of blood vessel branches/main blood vessel [1, 2]: 32.3 ± 3.5
Inhibition ratio [1, 3]: 64.4 ± 14.2^8
Number of blood vessel branches/main blood vessel [1, 3]: 24.3 ± 2.7^8

Cc1nc(N2CCCC2)c(C)c(C)c1O [Compound 6m, 2,4,5-trimethyl-6-(pyrrolidin-1-yl)pyridin-3-ol]
inhibition in vivo at 1 µM [1, 4]: 60.5 ± 12.7%
Number of blood vessel branches/main blood vessel [1, 5]: 27.6 ± 4.2^8
angiogenesis inhibiting effects [1]: excellent angiogenesis inhibiting effects

Cc1nc(N(C)c2ccccn2)c(C)c(C)c1O [Compound 6q, 2,4,5-trimethyl-6-(methyl(pyridin-2-yl)amino)pyridin-3-ol]
inhibition in vivo at 1 µM ([1]; Gallus gallus, 72 h, VEGF (50 ng/CAM) + 2.4 ng/CAM, 1.0 μM, 3 days after treatment, read-out: Inhibition ratio): 42.2 ± 21.7%
Number of blood vessel branches/main blood vessel ([1]; VEGF (50 ng/CAM) + 2.4 ng/CAM, 1.0 μM, 3 days after treatment): 34.2 ± 6.9^8

Cc1nc(Nc2ccc([N+](=O)[O-])cc2)c(C)c(C)c1O [Compound 6i, 2,4,5-trimethyl-6-((4-nitrophenyl)amino)pyridin-3-ol]
inhibition in vivo at 1 µM [1, 6]: 74.9 ± 4.9%
IC50 ([1]; Gallus gallus, CAM treated with various concentrations, FIG. 3, read-out: IC50 with respect to angiogenesis inhibition): 1.8 nM
Number of blood vessel branches/main blood vessel [1, 7]: 26.3 ± 1.6^8
degree of intracellular fluorescence (VEGF-derived ROS) (HUVEC cells): substantial decrease
oncogenesis-derived angiogenesis (A549 lung cancer cells): inhibited
tumor growth (A549 lung cancer cells): inhibited

Cc1nc(N2CCOCC2)c(C)c(C)c1O [Compound 6o, 2,4,5-trimethyl-6-morpholinopyridin-3-ol]
inhibition in vivo at 1 µM [1, 4]: 59 ± 11%
Number of blood vessel branches/main blood vessel [1, 5]: 28.8 ± 3.7^8

Cc1nc(Nc2ccccc2)c(C)c(C)c1O [Compound 6g, 2,4,5-trimethyl-6-(phenylamino)pyridin-3-ol]
inhibition in vivo at 1.3 µM [1, 8]: 69.4 ± 5.7%
Number of blood vessel branches/main blood vessel [1, 9]: 23.3 ± 1.1^8
angiogenesis inhibiting effects [1]: excellent angiogenesis inhibiting effects

CN(C)c1ccc(/C=C2\C(=O)Nc3ccccc32)cc1 [SU4312, reference compound]
Inhibition ratio [1, 10]: 74.6 ± 12.1^8
Number of blood vessel branches/main blood vessel [1, 10]: 24 ± 4.6^8

Cc1nc(Nc2ccccc2C(C)C)c(C)c(C)c1O [Compound 6h, 6-((2-isopropylphenyl)amino)-2,4,5-trimethylpyridin-3-ol]
inhibition in vivo at 1.1 µM [1, 11]: 55.3 ± 20.3%
Number of blood vessel branches/main blood vessel [1, 12]: 28.4 ± 2.7^8

Cc1nc(Nc2ccc(Br)cc2)c(C)c(C)c1O [Compound 6j, 6-((4-bromophenyl)amino)-2,4,5-trimethylpyridin-3-ol]
inhibition in vivo at 1 µM [1, 6]: 61.7 ± 7.7%
Number of blood vessel branches/main blood vessel [1, 7]: 30.7 ± 2.6^8

CCCCCCCCCCCCCCCCNc1nc(C)c(O)c(C)c1C [Compound 6c, 6-(hexadecylamino)-2,4,5-trimethylpyridin-3-ol]
inhibition in vivo at 0.8 µM ([1]; Gallus gallus, 72 h, VEGF (50 ng/CAM) + 3.0 ng/CAM, 0.8 μM, 3 days after treatment, read-out: Inhibition ratio): 30.1 ± 20%
Number of blood vessel branches/main blood vessel ([1]; VEGF (50 ng/CAM) + 3.0 ng/CAM, 0.8 μM, 3 days after treatment): 30.8 ± 3.8^8

Cc1nc(Nc2ccc3c(c2)OCO3)c(C)c(C)c1O [Compound 6k, 6-(benzo[d][1,3]dioxol-5-ylamino)-2,4,5-trimethylpyridin-3-ol]
inhibition in vivo at 1.1 µM [1, 11]: 62.4 ± 11.6%
Number of blood vessel branches/main blood vessel [1, 12]: 25.8 ± 4.3^8
angiogenesis inhibiting effects [1]: excellent angiogenesis inhibiting effects

CCCCCCNc1nc(C)c(O)c(C)c1C [Compound 6b, 6-(hexylamino)-2,4,5-trimethylpyridin-3-ol]
inhibition in vivo at 1.3 µM [1, 8]: 53.7 ± 10.3%
Number of blood vessel branches/main blood vessel [1, 9]: 26.3 ± 2.0^8

CNC(=O)[C@H](Cc1ccccc1)NC(=O)[C@H](CC(C)C)[C@H](CSc1cccs1)C(=O)NO [Batimastat, reference compound]
inhibition in vivo at 200 µM ([1]; Gallus gallus, 72 h, VEGF (50 ng/CAM) + 1.0 μg/CAM, 200 μM, 3 days after treatment, read-out: Inhibition ratio): 78.4 ± 7.4%
Number of blood vessel branches/main blood vessel ([1]; VEGF (50 ng/CAM) + 1.0 μg/CAM, 200 μM, 3 days after treatment): 19.9 ± 2.87^8

Cc1nc(NCCCO)c(C)c(C)c1O [Compound 6d-1, 6-((3-hydroxypropyl)amino)-2,4,5-trimethylpyridin-3-ol]
inhibition in vivo at 1.4 µM ([1]; Gallus gallus, 72 h, VEGF (50 ng/CAM) + 3.0 ng/CAM, 1.4 μM, 3 days after treatment, read-out: Inhibition ratio): 46.3 ± 12%
Number of blood vessel branches/main blood vessel ([1]; VEGF (50 ng/CAM) + 3.0 ng/CAM, 1.4 μM, 3 days after treatment): 27.8 ± 2.3^8

Cc1nc(N(c2ccccc2)c2ccccc2)c(C)c(C)c1O [Compound 6l, 6-(diphenylamino)-2,4,5-trimethylpyridin-3-ol]
inhibition in vivo at 1 µM [1, 6]: 65.4 ± 14.6%
Number of blood vessel branches/main blood vessel [1, 7]: 26.8 ± 4.6^8
angiogenesis inhibiting effects [1]: excellent angiogenesis inhibiting effects

Cc1nc(NCc2ccccc2)c(C)c(C)c1O [Compound 6f, 6-(benzylamino)-2,4,5-trimethylpyridin-3-ol]
inhibition in vivo at 1.2 µM ([1]; Gallus gallus, 72 h, VEGF (50 ng/CAM) + 3.0 ng/CAM, 1.2 μM, 3 days after treatment, read-out: Inhibition ratio): 56.7 ± 16.8%
Number of blood vessel branches/main blood vessel ([1]; VEGF (50 ng/CAM) + 3.0 ng/CAM, 1.2 μM, 3 days after treatment): 25.8 ± 3.2^8

Cc1nc(N2CCN(C)CC2)c(C)c(C)c1O [Compound 6n, 2,4,5-trimethyl-6-(4-methylpiperazin-1-yl)pyridin-3-ol]
inhibition in vivo at 1 µM [1, 4]: 24.7 ± 21.3%
Number of blood vessel branches/main blood vessel [1, 5]: 39.8 ± 6.8^8

Br.Cc1nc(Nc2ccccc2)c(C)c(C)c1O [Compound 6g-HBr, 2,4,5-trimethyl-6-(phenylamino)pyridin-3-ol hydrobromide]
inhibition in vivo at 1 µM [1, 6]: 55 ± 10.6%
Number of blood vessel branches/main blood vessel [1, 7]: 28.6 ± 3.9^8

Cc1nc(NCCCOc2nc(C)c(O)c(C)c2C)c(C)c(C)c1O [Compound 6d-2, 6-(3-((5-hydroxy-3,4,6-trimethylpyridin-2-yl)amino)propoxy)-2,4,5-trimethylpyridin-3-ol]
inhibition in vivo at 1 µM ([1]; Gallus gallus, 72 h, VEGF (50 ng/CAM) + 3.5 ng/CAM, 1.0 μM, 3 days after treatment, read-out: Inhibition ratio): 67.3 ± 13.9%
Number of blood vessel branches/main blood vessel ([1]; VEGF (50 ng/CAM) + 3.5 ng/CAM, 1.0 μM, 3 days after treatment): 26.2 ± 4.4^8
angiogenesis inhibiting effects [1]: excellent angiogenesis inhibiting effects

Cc1nc(-n2cccc2)c(C)c(C)c1O [Compound 6p, 2,4,5-trimethyl-6-(1H-pyrrol-1-yl)pyridin-3-ol]
inhibition in vivo at 1 µM [1, 4]: 44 ± 17.2%
Number of blood vessel branches/main blood vessel [1, 5]: 33.6 ± 5.5^8

Cc1nc(NC2CCCCC2)c(C)c(C)c1O [Compound 6e, 6-(cyclohexylamino)-2,4,5-trimethylpyridin-3-ol]
inhibition in vivo at 1.3 µM [1, 8]: 36.8 ± 10.7%
Number of blood vessel branches/main blood vessel [1, 9]: 35.3 ± 4.0^8
